row,Compound,melting point [°C]
1,"CCN(CCOC)Cc1cccc(CN(C)c2nc(=O)c3c(C)c(OC)c(OC)cc3[nH]2)c1 [Example 121, 2-[(3-{[Ethyl(2-methoxy-ethyl)-amino]-methyl}-benzyl)-methyl-azmino]-6,7-dimethoxy-5-methyl-1H-quinazolin-4-one]",121.8 to 122.3
2,"COc1cc2[nH]c(N(C)Cc3cccc(CN4CCCC4)c3)nc(=O)c2c(C)c1OC [Example 122, 6,7-Dimethoxy-5-methyl-2-[methyl-(3-pyrrolidin-1-ylmethyl-benzyl)-amino]-1H-quinazolin-4-one]",163.9 to 164.5
3,"COc1cc2[nH]c(N(C)Cc3cccc(S(C)(=O)=O)c3)nc(=O)c2c(C)c1OC [Example 128, 2-[(3-Methanesulfonyl-benzyl)-methyl-amino]-6,7-dimethoxy-5-methyl-1H-quinazolin-4-one]",269.5 to 271.5
4,"COc1cc2[nH]c(N(C)Cc3cccc(S(C)(=O)=O)c3)nc(=O)c2c(OC)c1OC [Example 129, 2-[(3-Methanesulfonyl-benzyl)-methyl-amino]-5,6,7-trimethoxy-1H-quinazolin-4-one]",231.5 to 232.9
5,COc1cc2[nH]c(N(C)Cc3cccc(S(=O)(=O)N(C)C)c3)nc(=O)c2c(OC)c1OC [Example 130],199.9 to 204
6,"COCCNS(=O)(=O)c1cccc(CN(C)c2nc(=O)c3c(C)c(OC)c(OC)cc3[nH]2)c1 [Example 131, 3-{[(6,7-Dimethoxy-5-methyl-4-oxo-1,4-dihydro-quinazolin-2-yl)-methyl-amino]-methyl}-N-(2-methoxy-ethyl)-benzenesulfonamide]",163 to 164.9
7,"COCCNS(=O)(=O)c1cccc(CN(C)c2nc(=O)c3c(OC)c(OC)c(OC)cc3[nH]2)c1 [Example 132, N-(2-Methoxy-ethyl)-3-{[methyl-(5,6,7-trimethoxy-4-oxo-1,4-dihydro-quinazolin-2-yl)-amino]-methyl}-benzenesulfonamide]",176.9 to 179.1
8,"COc1cc2[nH]c(N(C)Cc3cccc(C(=O)O)c3)nc(=O)c2c(C)c1OC [Example 134, 3-{[(6,7-Dimethoxy-5-methyl-4-oxo-1,4-dihydro-quinazolin-2-yl)-methyl-amino]-methyl}-benzoic acid]",283.1 to 286.2
9,"CNC(=O)c1cccc(CN(C)c2nc(=O)c3c(C)c(OC)c(OC)cc3[nH]2)c1 [Example 136, 3-{[(6,7-Dimethoxy-5-methyl-44-oxo-1,4-dihydro-quinazolin-2-yl)-methyl-amino]-methyl}-N-methyl-benzamide]",243.3 to 245.1
10,"CNC(=O)c1cccc(CN(C)c2nc(=O)c3c(OC)c(OC)c(OC)cc3[nH]2)c1 [Example 137, N-Methyl-3-{[methyl-(5,6,7-trimethoxy-4-oxo-1,4-dihydro-quinazolin-2-yl)-amino]-methyl}-benzamide]",217.9 to 219.1
11,"COc1cc2[nH]c(N(C)Cc3cccc(O)c3)nc(=O)c2c(C)c1OC [Example 154, 2-[(3-Hydroxy-benzyl)-methyl-amino]-6,7-dimethoxy-5-methyl-1H-quinazolin-4-one]",252.9 to 254.35
12,"COc1cc2[nH]c(N(C)Cc3cccc(O)c3)nc(=O)c2c(OC)c1OC [Example 155, 2-[(3-Hydroxy-benzyl)-methyl-amino]-5,6,7-trimethoxy-1H-quinazolin-4-one]",212.3 to 215.1
13,"COc1cc2[nH]c(N(C)Cc3cccc(OCC(=O)O)c3)nc(=O)c2c(C)c1OC [Example 157, (3-{[(6,7-Dimethoxy-5-methyl-4-oxo-1,4-dihydro-quinazolin-2-yl)-methyl-amino]-methyl}-phenoxy)-acetic acid]",> 300
14,"COc1cc2[nH]c(N(C)Cc3cccc(OCC(=O)O)c3)nc(=O)c2c(OC)c1OC [Example 158, (3-{[Methyl-(5,6,7-trimethoxy-4-oxo-1,4-dihydro-quinazolin-2-yl)-amino]-methyl}-phenoxy)-acetic acid]",> 300
15,"COCCOc1cccc(CN(C)c2nc(=O)c3c(C)c(OC)c(OC)cc3[nH]2)c1 [Example 160, 6,7-Dimethoxy-2-{[3-(2-methoxy-ethoxy)-benzyl]-methyl-amino}-5-methyl-1H-quinazolin-4-one]",176.6 to 177.9

# More lines, now with the values ahead:
row,melting point [°C],Compound
1,150.1 to 152,"COCCCOc1cccc(CN(C)c2nc(=O)c3c(C)c(OC)c(OC)cc3[nH]2)c1 [Example 162, 6,7-Dimethoxy-2-{[3-(3-methoxy-propoxy)-benzyl]-methyl-amino}-5-methyl-1H-quinazolin-4-one]"
2,137.9 to 141.9,"COc1cc2[nH]c(N(C)Cc3cccc(OCCN(C)C)c3)nc(=O)c2c(C)c1OC [Example 164, 2-{[3-(2-Dimethylamino-ethoxy)-benzyl]-methyl-amino}-6,7-dimethoxy-5-methyl-1H-quinazolin-4-one]"
3,264.6 to 266.5,"CCNCCOc1cccc(CN(C)c2nc(=O)c3c(C)c(OC)c(OC)cc3[nH]2)c1 [Example 165, 2-{[3-(2-Ethylamino-ethoxy)-benzyl]-methyl-amino}-6,7-dimethoxy-5-methyl-1H-quinazolin-4-one]"
4,174.4 to 174.8,"COc1cc2[nH]c(N(C)Cc3cccc(/N=C(\C)N(C)C)c3)nc(=O)c2c(C)c1OC [Example 167, N′-(3-{[(6,7-Dimethoxy-5-methyl-4-oxo-1,4-dihydro-quinazolin-2-yl)-methyl-amino]-methyl}-phenyl)-N,N-dimethyl-acetamide]"
5,195.3 to 199,"COc1cc2[nH]c(N(C)Cc3cccc(NS(=O)(=O)N(C)C)c3)nc(=O)c2c(C)c1OC [Example 169, N′-(3-{[(6,7-dimethoxy-5-methyl-4-oxo-1,4-dihydro-quinazolin-2-yl)-methyl-amino]-methyl}-phenyl)-N,N-dimethylsulfamide]"
6,160 to 161.7,"COc1cc2[nH]c(N(C)Cc3cccc(N(C)S(=O)(=O)N(C)C)c3)nc(=O)c2c(C)c1OC [Example 170, N-(3-{[(6,7-dimethoxy-5-methyl-4-oxo-1,4-dihydro-quinazolin-2-yl)-methyl-amino]-methyl}-phenyl)-N,N′,N′-trimethylsulfamide]"
7,176.5 to 179.7,"COc1cc2[nH]c(N(C)Cc3cccc(NS(=O)(=O)N(C)C)c3)nc(=O)c2c(OC)c1OC [Example 171, N,N-Dimethyl-N′-(3-{[methyl-(5,6,7-trimethoxy-4-oxo-1,4-dihydro-quinazolin-2-yl)-amino]-methyl}-phenyl)-sulfamide]"
8,170.3 to 172.3,"COc1cc2[nH]c(N(C)Cc3cccc(N(C)S(=O)(=O)N(C)C)c3)nc(=O)c2c(OC)c1OC [Example 172, N,N,N′-Trimethyl-N′-(3-{[methyl-(5,6,7-trimethoxy-4-oxo-1,4-dihydro-quinazolin-2-yl)-amino]-methyl}-phenyl)-sulfamide]"
9,230.9 to 232.1,"COC(=O)Nc1cccc(CN(C)c2nc(=O)c3c(OC)c(OC)c(OC)cc3[nH]2)c1 [Example 177, (3-{[Methyl-(5,6,7-trimethoxy-4-oxo-1,4-dihydro-quinazolin-2-yl)-amino]-methyl}-phenyl)-carbamic acid methylester]"
10,191.9 to 194.1,"COC(=O)N(C)c1cccc(CN(C)c2nc(=O)c3c(C)c(OC)c(OC)cc3[nH]2)c1 [Example 178, (3-{[(6,7-Dimethoxy-5-methyl-4-oxo-1,4-dihydro-quinazolin-2-yl)-methyl-amino]-methyl}-phenyl)-methyl-carbamic acid methyl ester]"
11,131.5 to 168,"COc1cc2[nH]c(N(C)Cc3cccc(NC(=O)N(C)C)c3)nc(=O)c2c(C)c1OC [Example 180, 3-(3-{[(6,7-Dimethoxy-5-methyl-4-oxo-1,4-dihydro-quinazolin-2-yl)-methyl-amino]-methyl}-phenyl)-1,1-dimethyl-urea]"
12,165 to 167,"CONC(=O)Nc1cccc(CN(C)c2nc(=O)c3c(OC)c(OC)c(OC)cc3[nH]2)c1 [Example 181, N-Methoxy-N′-(3-{[methyl-(5,6,7-trimethoxy-4-oxo-1,4-dihydro-quinazolin-2-yl)-amino]-methyl-}-phenyl)-urea]"
13,60.5 to 61.5,"COc1cc2[nH]c(N(C)Cc3cccc(NCCO)c3)nc(=O)c2c(OC)c1OC [Example 182, 2-{[3-(2-Hydroxy-ethylamino)-benzyl]-methyl-amino}-5,6,7-trimethoxy-1H-quinazolin-4-one]"
14,138.1 to 141,"COc1cc2[nH]c(N(C)Cc3cccc(N(CCO)CCO)c3)nc(=O)c2c(OC)c1OC [Example 190, 2-({3-[Bis(2-hydroxy-ethyl)-amino]-bewnzyl}-methyl-amino)-5,6,7-trimethoxy-1H-quinazolin-4-one]"
15,220.6 to 222.4,"COc1cc2[nH]c(N(C)C(C)c3cccc(NCCNC(C)=O)c3)nc(=O)c2c(C)c1OC (centres unmarked) [Example 191, N-[2-(3-{1-[(6,7-Dimethoxy-5-methyl-4-oxo-1,4-dihydro-quinazolin-2-yl)-methyl-amino]-ethyl}-phenylamino)-ethyl]-acetamide]"
16,181.2 to 186.6,C/N=C(/C)N(C)c1cccc(CN(C)c2nc(=O)c3c(C)c(OC)c(OC)cc3[nH]2)c1 [Example 194]
17,233.1 to 233.9,"CN/C(C)=N/c1cccc(CN(C)c2nc(=O)c3c(C)c(OC)c(OC)cc3[nH]2)c1 [Example 195, N-(3-{[(6,7-Dimethoxy-5-methyl-4-oxo-1,4-dihydro-quinazolin-2-yl)-methyl-amino]-methyl}-phenyl)-N′-methyl-acetamide]"
18,185 to 186,COc1cc2[nH]c(N(C)Cc3cccc(/N=C/N(C)C)c3)nc(=O)c2c(C)c1OC [Example 196]
19,199 to 201,"COc1cc2[nH]c(N(C)Cc3cccc(/N=C(/C)N(C)C)c3)nc(=O)c2c(OC)c1OC [Example 197, N,N-Dimethyl-N′-(3-{[methyl-(5,6,7-trimethoxy-4-oxo-1,4-dihydro-quinazolin-2-yl)-amino]-methyl}-phenyl)acetamidine]"
20,148 to 150,"COc1cc2[nH]c(N(C)Cc3cccc(/N=C(\C(C)C)N(C)C)c3)nc(=O)c2c(OC)c1OC [Example 198, N,N-Dimethyl-N′-(3-{[methyl-(5,6,7-trimethoxy-4-oxo-1,4-dihydro-quinazolin-2-yl)-amino]-methyl}-phenyl)-isobutyramidine]"

# From patent publication US7244738B2, “Arylamine-substituted quinazolinone compounds useful as alpha 1A/B adrenergic receptor antagonists” (Roche Palo Alto LLC, priority 2003, dated 2007)
